According to patent publication US6559102B1, “Substituted 3-aryl-pyrazoles” (Bayer Aktiengesellschaft, priority 1998, dated 2003):

Test system: weeds
Assay: Pre-emergence test (Example A), activity against weeds
Format: in vivo
Details: soil sprayed about 24 hours after sowing, rated after three weeks
Procedure: (§1) Pre-emergence Test Solvent: 5 parts by weight of acetone Emulsifier: 1 part by weight of alkylaryl polyglycol ether To produce a suitable preparation of active compound, 1 part by weight of active compound is mixed with the stated amount of solvent, the stated amount of emulsifier is added and the concentrate is diluted with water to the desired concentration. Seeds of the test plants are sown in normal soil. After approximately 24 hours, the soil is sprayed with the preparation of the active compound in such a way as to apply the particular amount of active compound desired per unit area. The concentration of the spray liquor is chosen so that the amount of active compound desired in each case is applied in 1000 liter of water per hectare. After three weeks, the degree of damage to the plants is rated in % damage in comparison with the development of the untreated control. The figures denote: [table]

| Compound | activity against weeds (degree of damage) |
| --- | --- |
| CCOC(=O)C(C)Oc1ccc(Oc2cc(-c3nn(C)c(OC(F)F)c3Br)c(F)cc2C#N)cc1 (stereo not shown) [Example 1, ethyl 2-[4-[2-cyano-5-[4-bromo-5-(difluoromethoxy)-1-methyl-1H-pyrazo-3-yl]-4-fluoro-phenoxy]-phenoxy]-propionate] | strong activity against weeds |

Test system: crop plants, such as, for example, barley, wheat, maize and soya
Assay: Pre-emergence test (Example A), compatibility with crop plants
Format: in vivo
Details: rated after three weeks
Procedure: as §1

| compatibility with crop plants | Compound |
| --- | --- |
| good compatibility with crop plants | CCOC(=O)C(C)Oc1ccc(Oc2cc(-c3nn(C)c(OC(F)F)c3Br)c(F)cc2C#N)cc1 (stereo not shown) [Example 1, ethyl 2-[4-[2-cyano-5-[4-bromo-5-(difluoromethoxy)-1-methyl-1H-pyrazo-3-yl]-4-fluoro-phenoxy]-phenoxy]-propionate] |

Test system: weeds
Assay: Post-emergence test (Example B), activity against weeds
Format: in vivo
Details: test plants 5-15 cm sprayed, rated after three weeks
Procedure: Post-emergence Test Solvent: 5 parts by weight of acetone Emulsifier: 1 part by weight of alkylaryl polyglycol ether To produce a suitable preparation of active compound, 1 part by weight of active compound is mixed with the stated amount of solvent, the stated amount of emulsifier is added and the concentrate is diluted with water to the desired concentration. Test plants which have a height of 5-15 cm are sprayed with the preparation of the active compound in such a way as to apply the particular amounts of active compound desired per unit area. The concentration of the spray liquor is chosen so that the amounts of active compound desired in each case are applied in 1000 l of water/ha. After three weeks, the degree of damage to the plants is rated in % damage in comparison with the development of the untreated control. The figures denote: 0%=no effect (like untreated control) 100%=total destruction

| Compound | activity against weeds (degree of damage) |
| --- | --- |
| CCOC(=O)C(C)Oc1ccc(Oc2cc(-c3nn(C)c(OC(F)F)c3Br)c(F)cc2C#N)cc1 (stereo not shown) [Example 1, ethyl 2-[4-[2-cyano-5-[4-bromo-5-(difluoromethoxy)-1-methyl-1H-pyrazo-3-yl]-4-fluoro-phenoxy]-phenoxy]-propionate] | strong activity against weeds |

Test system: not given
Assay: not given
Details: not given

| melting point [°C] | Compound |
| --- | --- |
| 60 | CCOC(=O)C(C)Oc1ccc(Oc2cc(-c3nn(C)c(OC(F)F)c3Br)c(F)cc2C#N)cc1 (stereo not shown) [Example 1, ethyl 2-[4-[2-cyano-5-[4-bromo-5-(difluoromethoxy)-1-methyl-1H-pyrazo-3-yl]-4-fluoro-phenoxy]-phenoxy]-propionate] |
| 123 | Cn1nc(-c2cc(Oc3ccccc3)c(C#N)cc2F)c(Cl)c1C(F)(F)F [Example 2, 4-chloro-3-(4-cyano-2-fluoro-5-phenoxyphenyl)-1-methyl-5-trifluoromethyl-1H-pyrazole] |

Test system: not listed separately
Assay: log P determination by HPLC, reversed-phase column (EEC Directive 79/831 Annex V.A8)
Format: physicochemical
Details: reversed-phase C 18, 43° C., acidic range: 0.1% aqueous phosphoric acid, acetonitrile, gradient 10% to 90% (data labelled a))
Procedure: The log P values given in Table 1 were determined in accordance with the EEC Directive 79/831 Annex V.A8 by HPLC (High Performance Liquid Chromatography) using a reversed-phase column (C 18). Temperature: 43° C. (a) Mobile phases for the determination in the acidic range: 0.1% aqueous phosphoric acid, acetonitrile; linear gradient from 10% acetonitrile to 90% acetonitrile—the corresponding data are labelled a) in Table 1. (b) Mobile phases for the determination in the neutral range: 0.01 molar aqueous phosphate buffer solution, acetonitrile; linear gradient from 10% acetonitrile to 90% acetonitrile—the corresponding data are labelled b) in Table 1. The calibration was carried out using unbranched alkan-2-ones (having from 3 to 16 carbon atoms) whose log P values are known (determination of the log P values by the retention times by linear interpolation between two successive alkanones).

| Compound | log P |
| --- | --- |
| Cn1nc(-c2cc(Oc3cccc(C(F)(F)F)c3)c(C#N)cc2F)c(Cl)c1OC(F)F [Example 51] | logP: 4.55^a) |
| Cn1nc(-c2cc(Oc3ccc(C(F)(F)F)cc3)c(C#N)cc2F)c(Cl)c1OC(F)F [Example 52] | logP: 4.59^a) |
| Cc1ccccc1Oc1cc(-c2nn(C)c(OC(F)F)c2Cl)c(F)cc1C#N [Example 56] | logP: 4.40^a) |
| Cc1cccc(Oc2cc(-c3nn(C)c(OC(F)F)c3Cl)c(F)cc2C#N)c1 [Example 57] | logP: 4.43^a) |
| Cc1ccc(Oc2cc(-c3nn(C)c(OC(F)F)c3Cl)c(F)cc2C#N)cc1 [Example 58] | logP: 4.45^a) |
| COc1ccccc1Oc1cc(-c2nn(C)c(OC(F)F)c2Cl)c(F)cc1C#N [Example 59] | logP: 3.98^a) |
| COc1cccc(Oc2cc(-c3nn(C)c(OC(F)F)c3Cl)c(F)cc2C#N)c1 [Example 60] | logP: 4.13^a) |
| COc1ccc(Oc2cc(-c3nn(C)c(OC(F)F)c3Cl)c(F)cc2C#N)cc1 [Example 61] | logP: 4.05^a) |
| Cn1nc(-c2cc(Oc3ccccc3Cl)c(C#N)cc2F)c(Cl)c1OC(F)F [Example 67] | logP: 4.28^a) |
| Cn1nc(-c2cc(Oc3cccc(Cl)c3)c(C#N)cc2F)c(Cl)c1OC(F)F [Example 68] | logP: 4.49^a) |
| Cn1nc(-c2cc(Oc3ccc(Cl)cc3)c(C#N)cc2F)c(Cl)c1OC(F)F [Example 69] | logP: 4.49^a) |
| Cn1nc(-c2cc(Oc3ccccc3F)c(C#N)cc2F)c(Cl)c1OC(F)F [Example 70] | logP: 4.02^a) |
| Cn1nc(-c2cc(Oc3cccc(F)c3)c(C#N)cc2F)c(Cl)c1OC(F)F [Example 71] | logP: 4.17^a) |
| Cn1nc(-c2cc(Oc3ccc(F)cc3)c(C#N)cc2F)c(Cl)c1OC(F)F [Example 72] | logP: 4.13^a) |
| Cn1nc(-c2cc(Oc3ccc(OC(F)(F)F)cc3)c(C#N)cc2F)c(Cl)c1OC(F)F [Example 76] | logP: 4.70^a) |

Second part, the molecule after the results:

| log P | Compound |
| --- | --- |
| logP: 3.66^a) | CC(=O)c1ccc(Oc2cc(-c3nn(C)c(OC(F)F)c3Cl)c(F)cc2C#N)cc1 [Example 84] |
| logP: 3.80^a) | COc1cccc(Oc2cc(-c3nn(C)c(OC(F)F)c3Br)c(F)cc2C#N)c1OC [Example 112] |
| logP: 3.20^a) | CN(C)C(=O)c1ccccc1Oc1cc(-c2nn(C)c(OC(F)F)c2Cl)c(F)cc1C#N [Example 115] |
| logP: 4.38^a) | CN(C)c1cccc(Oc2cc(-c3nn(C)c(OC(F)F)c3Cl)c(F)cc2C#N)c1 [Example 116] |
| logP: 4.13^a) | Cn1nc(-c2cc(Oc3cccc(F)c3F)c(C#N)cc2F)c(Cl)c1OC(F)F [Example 117] |
| logP: 4.89^a) | Cn1nc(-c2cc(Oc3ccc(Cl)c(Cl)c3)c(C#N)cc2F)c(Cl)c1OC(F)F [Example 118] |
| logP: 4.55^a) | CC(C)Oc1ccccc1Oc1cc(-c2nn(C)c(OC(F)F)c2Cl)c(F)cc1C#N [Example 119] |
| logP: 4.74^a) | Cc1ccc(Oc2cc(-c3nn(C)c(OC(F)F)c3Cl)c(F)cc2C#N)cc1C [Example 120] |
| logP: 2.03^a) | CN(C)Cc1ccccc1Oc1cc(-c2nn(C)c(OC(F)F)c2Cl)c(F)cc1C#N [Example 121] |
| logP: 4.40^a) | CCN(CC)c1cccc(Oc2cc(-c3nn(C)c(OC(F)F)c3Cl)c(F)cc2C#N)c1 [Example 122] |
| logP: 4.72^a) | Cn1nc(-c2cc(Oc3cccc(OC(F)(F)F)c3)c(C#N)cc2F)c(Cl)c1OC(F)F [Example 123] |
| logP: 3.98^a) | COc1cccc(Oc2cc(-c3nn(C)c(OC(F)F)c3Cl)c(F)cc2C#N)c1OC [Example 124] |
| logP: 4.59^a) | Cc1ccc(Cl)c(Oc2cc(-c3nn(C)c(OC(F)F)c3Cl)c(F)cc2C#N)c1 [Example 125] |
| logP: 3.72^a) | COc1ccc(Oc2cc(-c3nn(C)c(OC(F)F)c3Cl)c(F)cc2C#N)cc1OC [Example 126] |
